Each block holds one molecule with its values, some of them ahead of it.
Key:
[1] = ref Anderson et al., 2011; cited from earlier work
Chk2 = details: ref Jobson et al., cited from earlier work
Chk1 = biological target: T1, Chk1 (Homo sapiens, UniProt O14757); test: IMAP fluorescence polarization kinase inhibition assay, Chk1; format: biochemical; details: for IC50: read-out: IC50 Chk1, IMAP assay, 60 minutes at room temperature
T1 sequence (O14757 1-476): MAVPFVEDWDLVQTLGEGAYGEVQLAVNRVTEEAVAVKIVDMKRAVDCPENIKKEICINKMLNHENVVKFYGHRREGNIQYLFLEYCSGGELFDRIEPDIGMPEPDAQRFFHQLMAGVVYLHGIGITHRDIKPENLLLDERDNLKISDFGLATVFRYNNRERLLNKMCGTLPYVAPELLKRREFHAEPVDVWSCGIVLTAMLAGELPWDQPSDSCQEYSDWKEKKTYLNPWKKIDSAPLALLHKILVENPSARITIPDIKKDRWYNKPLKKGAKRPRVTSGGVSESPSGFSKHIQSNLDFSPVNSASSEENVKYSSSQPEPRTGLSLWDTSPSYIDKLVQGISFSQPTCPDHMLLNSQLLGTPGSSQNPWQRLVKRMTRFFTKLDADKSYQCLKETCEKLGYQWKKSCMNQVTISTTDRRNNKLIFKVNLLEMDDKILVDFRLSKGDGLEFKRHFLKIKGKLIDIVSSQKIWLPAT

recombinant human Chk2 = recombinant human Chk2 (Homo sapiens, UniProt O96017); test: IMAP fluorescence polarization kinase inhibition assay, Chk2; format: biochemical; details: read-out: IC50 Chk2 Mean ±SD (n=3–4), 60 minutes at room temperature
recombinant human Chk2, sequence (O96017 whole entry): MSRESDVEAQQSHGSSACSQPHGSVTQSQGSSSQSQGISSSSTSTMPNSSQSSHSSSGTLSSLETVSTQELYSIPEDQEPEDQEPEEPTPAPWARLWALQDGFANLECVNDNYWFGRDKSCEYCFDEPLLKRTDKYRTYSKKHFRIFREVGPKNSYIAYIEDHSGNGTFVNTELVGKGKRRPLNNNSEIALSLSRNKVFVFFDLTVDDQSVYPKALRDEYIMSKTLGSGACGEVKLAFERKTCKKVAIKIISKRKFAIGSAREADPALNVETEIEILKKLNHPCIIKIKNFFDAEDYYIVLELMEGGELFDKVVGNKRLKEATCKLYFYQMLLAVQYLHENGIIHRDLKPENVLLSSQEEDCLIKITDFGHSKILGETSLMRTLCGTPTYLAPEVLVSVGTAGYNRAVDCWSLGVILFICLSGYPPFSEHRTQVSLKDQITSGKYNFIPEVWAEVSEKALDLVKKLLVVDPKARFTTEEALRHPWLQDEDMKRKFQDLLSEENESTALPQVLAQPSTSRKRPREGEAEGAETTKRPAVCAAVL

RSK2 = RSK2 (Homo sapiens, UniProt P51812); test: IMAP fluorescence polarization kinase inhibition assay, RSK2; format: biochemical; details: for IC50: read-out: IC50 RSK2, IMAP assay, 60 minutes at room temperature
RSK2, sequence (P51812 68-327 limits assumed): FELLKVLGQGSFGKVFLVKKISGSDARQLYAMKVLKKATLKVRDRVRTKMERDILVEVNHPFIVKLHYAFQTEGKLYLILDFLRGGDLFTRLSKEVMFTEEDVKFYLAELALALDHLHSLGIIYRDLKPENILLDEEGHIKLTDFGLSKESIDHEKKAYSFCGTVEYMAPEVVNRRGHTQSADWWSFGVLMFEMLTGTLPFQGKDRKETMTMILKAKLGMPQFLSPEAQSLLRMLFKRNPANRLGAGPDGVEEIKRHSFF

[2] = positive control on each screening plate

SMILES: COc1cc2nc(-c3cc(F)ccc3O)nc(N[C@@H]3CNC[C@H]3C(C)(C)O)c2cc1OC [CCT241533]
Potentiation of cytotoxicity of PARP inhibitors [1]: potentiate the cytotoxicity of PARP inhibitors

SMILES: CC(=NNC(=N)N)c1ccc(NC(=O)Nc2ccc(C(C)=NNC(=N)N)cc2)cc1 [NSC 109555, 4,4'-Diacetyldiphenylurea-bis(guanylhydrazone)]
Activity in cellular assays (Chk2; 2007): inactive

IC50 (Chk1): > 100 µM
IC50 (recombinant human Chk2): 69.6 ± 40.2 nM
IC50 (RSK2): > 100 µM
SMILES: OCC=CCO [PV976]

SMILES: CC(=NNC(=N)N)c1ccc(NC(=O)c2cc3cccc([N+](=O)[O-])c3[nH]2)cc1 [PV1019, 7-nitro-1H-indole-2-carboxylic acid {4-[1-(guanidinohydrazone)-ethyl]-phenyl}-amide]
Activity in cells against Chk2 (Chk2; 2009): active

IC50 (Chk1): 66 µM
IC50 (RSK2): > 100 µM
SMILES: C/C(=N\NC1=NCCN1)c1ccc(NC(=O)c2cc3cccc([N+](=O)[O-])c3[nH]2)cc1 [PV1115]

SMILES: N/C(=N/N=C/c1cccnc1)N[N+](=O)[O-] [PV1531]
IC50 (Chk1): 86 µM
IC50 (recombinant human Chk2): 0.03 ± 0.03 nM
IC50 (RSK2): > 100 µM

SMILES: CN[C@@H]1C[C@H]2O[C@@](C)([C@@H]1OC)n1c3ccccc3c3c4c(c5c6ccccc6n2c5c31)C(=O)NC4 [staurosporine, reference compound]
Inhibition of Chk1 (positive control) (Chk1; [2]): inhibits
Inhibition of RSK2 (positive control) (RSK2; [2]): inhibits
